The subject of one series is adhesion of Ramos cells to VCAM-1. Kind of series: Adhesion of Ramos cells to immobilized VCAM-1 (domains 1-3) (Ramos—VCAM-1 assay). The settings on record: Homo sapiens, Ramos, 1 h. In kind it is cell-based. From the text:
In Vitro Assay: Adhesion of Jurkat/Ramos Cells to Immobilized VCAM-1 (Domains 1-3)
Preparation of VCAM-1 (Extracellular Domains 1-3)
Complementary DNA (cDNA) encoding 7 domain form of VCAM-1 (GenBank accession #M60335) was obtained using Rapid-Screen™ cDNA library panels (OriGene Technologies, Inc) at Takara Gene Analysis Center (Shiga, Japan). The primers used were 5′-CCAAGGCAGAGTACGCAAAC-3′ (sense) and 5′-TGGCAGGTATTATTAAGGAG-3′ (antisense). PCR amplification of the 3 domain VCAM-1 cDNA was perform using Pfu DNA polymerase (Stratagene) with the following sets of primers: (U-VCAMd1-3) 5′-CCATATGGTACCTGATCAATTTAAAATCGAGACCACCCCAGAA-3′; (L-VCAMd1-3) 5′-CCATATAGCAATCCTAGGTCCAGGGGAGATCTCAACAGTAAA-3′. PCR cycle was 94° C. for 45 sec. 55° C. for 45 sec, 72° C. for 2 min, repeating 15 cycles. After the purification of the PCR product, the fragment was digested with KpnI-AvrII. The digested fragment was ligated into pBluescript IISK(−) (Strategene), which was linearized by digesting with KpnI-XhoI. The ligation was followed by transformation to a Dam/Dcm methylase-free E. coli strain SCS110 (Strategene) to create the donor plasmid pHH7. To direct VCAM-1 molecule into the insect cell secretory pathway, the VCAM-1 coding sequence was fused to signal peptide sequence of honeybee melittin. The resulting melittin-VCAM fusion was placed in correct orientation to the baculovirus polyhedrin promoter. Baculovirus transfer vector containing first 3-domain form VCAM-1 (pH 10) was constructed by ligation of 0.9 kb fragment from AvrII/Klenow/BclI digests of pH 7 into SalI/Klenow/BamHI digests of pMelBacB Invitrogen). Recombinant baculovirus was generated by using Bac-N-Blue™ Transfection kit (Invitrogen) according to the manufacture's instruction. The recombinant virus was amplified by infection to High-Five™ insect cells for 5-6 days, and virus titer was determined by plaque assay.
High-Five™ insect cells were pelleted in a 225 ml conical tube by centrifugation at 1000 rpm for 5 min. After discarding the supernatant, the pellet was resuspended in 1.5×10^9 pfu (MOI=5) of high-titer virus solution, followed by incubation for 1.5 hours at room temperature. The cells were pelleted again and washed once in fresh Express Five™ serum free medium. The cells were pelleted again and finally, resuspended in 200 ml of fresh Express Five TM medium, transferred to a 1,000 ml shaker flask, and incubated in a shaker at 27° C., 130 rpm, for 48 hours before the culture supernatant was collected. The purification of 3-domain form of VCAM-1 from the culture supernatant was performed by one-step anion exchange chromatography. Protein concentration was determined by using Coomassie protein assay reagent (Pierce) according to the manufacture's instruction.
Preparation of VCAM-1 Coated Microtiter Plates
Recombinant human VCAM-1 (extracellular domains 1-3) was dissolved at 1.0 μg/1 ml in PBS. Each well of the microtiter plates (Nalge Nunc International, Fluoro-nunc Cert, 437958) was coated with 100 μl of substrate or for background control with buffer alone for 15 hours at 4 C. After discarding the substrate solution, the wells were blocked using 150 μl per well of block solution Kirkegaard Perry Laboratories, 50-61-01) for 90 minutes. The plate was washed with wash buffer containing 24 mM Tris-HCl (pH 7.4), 137 mM NaCl, […] and 2 MM MnCl2 just before addition of the assay.
In Vitro Assay using Ramos Cells
Preparation of Fluorescence Labeled Ramos Cells:
Ramos cells (American Type Culture Collection, Clone CRL-1596) were cultured in RPMI 1640 medium (Nikken Bio Medical Laboratory, CM1101) supplemented with 10% fetal bovine serum (Hyclone, A-1119-L), 100 U/ml penicilin (Gibco BRL, 15140-122) and 100 μg/ml streptomycin (Gibco BRL, 15140-122) in a humidified incubator at 37° C. with 5% CO2. […]
What is called IC50 is the point on the concentration scale where inhibition reaches its midpoint. `Cc1ccccc1NC(=O)Nc1ccc(CC(=O)N[C@@H](CC(C)C)C(=O)Nc2ccc(C(=O)O)c(Cl)c2)cc1` [Example 47] had an IC50 of less than 500 nM.
On to `Cc1ccccc1NC(=O)Nc1ccc(CC(=O)N[C@@H](CC(C)C)C(=O)Nc2ccc(C(=O)O)c(Nc3ccccc3)c2)cc1` [Example 48], for which the IC50 is less than 500 nM.
Same read-out and setting: the same measure for `COc1cc(C(=O)O)ccc1NC(=O)[C@H](CC(C)C)NC(=O)Cc1ccc(NC(=O)Nc2ccccc2C)cc1` [Example 46]: greater than 10000 nM.
Still for that read-out and setting: the figure for `COCCCN(CC(=O)Nc1ccc(C(=O)O)cc1)C(=O)Cc1ccc(NC(=O)Nc2ccccc2C)cc1` [Example 59] is less than 500 nM.

Still in this series, the particulars now being: Homo sapiens; Cell Type Ramos; adhesion to VCAM-1 coated plates, 1 hour at 37 C; IC50 value ranges; read-out: IC50.
Consider `Cc1ccccc1NC(=O)Nc1ccc(CC(=O)N[C@@H](CCCCN)C(=O)Nc2ccc(C(=O)O)cc2)cc1.O=C(O)C(F)(F)F` [Example 58], for which the IC50 is less than 500 nM.

Test system in the next series: not given
Experiment: not given
Settings: not given
What is called melting point is the temperature, or range, at which the solid turns liquid. On to `Cc1ccccc1NC(=O)Nc1ccc(CC(=O)N[C@@H](CC(C)C)C(=O)Nc2ccc(C(=O)O)c(Cl)c2)cc1` [Example 47], for which the melting point lay in the range of 178 to 180 °C.
The same measure, in the same setting: the figure for `Cc1ccccc1NC(=O)Nc1ccc(CC(=O)N[C@@H](CC(C)C)C(=O)Nc2ccc(C(=O)O)c(Nc3ccccc3)c2)cc1` [Example 48] is 164 to 169 °C; for `COc1cc(C(=O)O)ccc1NC(=O)[C@H](CC(C)C)NC(=O)Cc1ccc(NC(=O)Nc2ccccc2C)cc1` [Example 46] it is 138 to 142 °C; for `Cc1ccccc1NC(=O)Nc1ccc(CC(=O)N[C@@H](CCCCN)C(=O)Nc2ccc(C(=O)O)cc2)cc1.O=C(O)C(F)(F)F` [Example 58] it is 168 to 169 °C.
`COCCCN(CC(=O)Nc1ccc(C(=O)O)cc1)C(=O)Cc1ccc(NC(=O)Nc2ccccc2C)cc1` [Example 59] came in with a melting point of 210 to 218 °C.

The record behind these values is US20030232868A1, “Cyclic carboxylic acids as integrin antagonists” (priority 2000, published 2003).
